Reference: article PMC3542062, “A phenyl-thiadiazolylidene-amine derivative ejects zinc from retroviral nucleocapsid zinc fingers and inactivates HIV virions” (Retrovirology, 2012)
Blank lines part the entries; values can stand above or below the compound they belong to.

Key:
NL4.3/AMD3100R = assay: microbe, parasite or virus in culture; format: cell-based, HIV-1; conditions: NL4.3/AMD3100R; EC50 for NL4.3 wild-type as 1
HIV-1 IIIB [1] = assay: Anti-HIV activity in CEM cells (cytopathogenicity); format: cell-based
MT-4 cells = assay: Cytotoxicity in mock-infected MT-4 cells (MTT); format: cell-based
HIV-2 ROD [2] = assay: MT-4/MTT-assay, protection against virus-induced cytopathic effect; format: cell-based; conditions: MT-4 cells, MTT, 5 days after infection
HIV-2 ROD [3] = assay: Anti-HIV activity in CEM cells (cytopathogenicity); format: cell-based
HIV-1 IIIB [4] = assay: MT-4/MTT-assay, protection against virus-induced cytopathic effect; format: cell-based; conditions: MT-4 cells, MTT, 5 days after infection
SIV Mac251 = assay: as above; format: cell-based; conditions: MT-4 cells, MTT, 5 days after infection
[5] = test system: human T-lymphocyte (CEM) cells; assay: Cytostatic activity, CEM cell proliferation; format: cell-based
[6] = test system: HIV-1 IIIB chronically-infected HuT-78 cells; assay: Gag processing in virions from HIV-1 IIIB chronically-infected HuT-78 cells (western blot); format: cell-based; conditions: HuT-78/IIIB cells treated 43 hours; WDO-217 50, 25 μM; ritonavir 2.7 μM; SRR-SB3 75, 15 μM
Method: Recently, it has been shown that this new mechanism involves acetylation of the NCp7 region of Gag, thereby blocking Gag processing.
HIV-1 IIIB virions from persistently infected HuT-78 cells treated with different concentrations of compound were analysed by gel electrophoresis and immunoblotted with antibody against capsid.
Chronically-infected HIV-1 IIIB HuT-78 cells (HuT-78/IIIB) were washed four times with PBS to remove all free virions before treatment and 2 × 10^5 cells were resuspended in 1 ml compound-containing medium for 43 hours at 37°C. Then, virions were prepared from clarified supernatants (10 min at 300 g) by centrifugation at 36670 g for 2 hours at 4°C. Protein from lysed virions were separated by SDS-PAGE on a NuPage® Novex 4-12% Bis-Tris gel (Invitrogen) and transferred on a hydrophobic polyvinylidene difluoride (PVDF) membrane (Amersham Hybond™-P). The blot was blocked overnight at 4°C by 5% dry milk powder in Western blot wash solution (WBWS; PBS + 0.5% Tween 20), washed three times for 5 minutes with WBWS and incubated with a mouse anti-HIV-1 p24 antibody (1:5000) from Abcam. The blot was then washed three times for 5 minutes with WBWS and incubated for 1 h with a goat anti-mouse IgG-HRP secondary antibody (1:2500) from Santa Cruz Biotechnology. […]

HIV-1 IIIB [7] = assay: Virucidal assay: virus pre-incubated with compound, diluted, titrated on MT-4 cells; conditions: virus incubated 1 h 37°C with 0.5%; no drug 1 × 10^6
HIV-1 virus particles [8] = assay: Virion-associated genomic RNA of pre-treated virus (RT-qPCR, Northern blot); conditions: compound-cleared HIV-1 virus stock, RT-qPCR or Northern blot
HIV-1 virus particles [9] = assay: Virion-associated p24 of pre-treated, compound-cleared virus (ELISA); conditions: compound-cleared HIV-1 virus stock
HIV-2 ROD [10] = assay: Virucidal assay: virus pre-incubated with compound, diluted, titrated on MT-4 cells; conditions: virus incubated 1 h 37°C with 0.5%; no drug 5.4 × 10^6

Compound: c1cc(CN2CCCNCCNCCCNCC2)ccc1CN1CCCNCCNCCCNCC1 [AMD3100, reference compound]
Fold resistance of mutant strain towards the respective inhibitor (NL4.3/AMD3100R): (>100)

EC50 (HIV-1 IIIB [1]): 58 ± 30 nM
EC50 (HIV-2 ROD [2]): 5 ± 0.8 nM
EC50 (HIV-2 ROD [3]): 55 ± 20 nM
EC50 (HIV-1 IIIB [4]): 7 ± 1 nM
EC50 (SIV Mac251): 16 ± 7 nM
Compound: Cc1cn([C@H]2C[C@H](N=[N+]=[N-])[C@@H](CO)O2)c(=O)[nH]c1=O [AZT, reference compound]
CC50 (MT-4 cells): > 35000 nM
CC50 [5]: > 125000 nM

Compound: CC(C)c1nc(CN(C)C(=O)N[C@H](C(=O)N[C@@H](Cc2ccccc2)C[C@H](O)[C@H](Cc2ccccc2)NC(=O)OCc2cncs2)C(C)C)cs1 [ritonavir, reference compound]
accumulation of unprocessed Gag polyprotein in progeny virus [6]: did effectively increase

Compound: Triton X-100 [reference compound]
CCID50/ml HIV-1 IIIB (HIV-1 IIIB [7]): 0 CCID50/ml
viral genomic RNA content after treatment (HIV-1 virus particles [8]): no p24 core protein nor viral genomic RNA could be detected
virus-associated p24 core protein after treatment (HIV-1 virus particles [9]): no p24 core protein nor viral genomic RNA could be detected
CCID50/ml HIV-2 ROD (HIV-2 ROD [10]): 0 CCID50/ml
